Test results published in US20200247897A1, “THERAPEUTIC ANTIBODIES BASED ON MUTATED IGG HEXAMERS” (GENMAB B.V., priority 2017, published 2020).

Tested on: panel of 235 cell lines representing 14 tumor lineages
Assay: ATPlite growth inhibition screening of a human cancer cell line panel (Horizon Discovery)
Format: cell-based
Description: A 72 hour ATPlite assay (except for DLD-1 and HCT116 cell lines, for which a 120 hour assay was performed) with growth inhibition analysis was performed in two parts at Horizon Discovery Ltd, UK. Samples were tested as four replicates in 384-well assay plates. Serial dilution series of antibody, starting from 0.072 μM final concentration was used for all tested cell lines. For TRAIL (Invitrogen; Cat # PHC1634) serial dilution series starting from 0.01 μM final concentration for the cell lines tested in the first part and 0.17 μM final concentration for the cell lines tested in the second part of the screening was used.

[1] = MCAS, ovary cancer, screening #1
[2] = MCF7, breast cancer, screening #2
[3] = MDA-MB-453, breast cancer (TNBC), screening #2
[4] = MDA-MB-468, breast cancer (TNBC), screening #2
[5] = OVCAR-5, ovary cancer, screening #1
[6] = OVK18, ovary cancer, screening #1
[7] = PK-1, pancreatic cancer, screening #1
[8] = PSN1, pancreatic cancer, screening #1
[9] = Panc 02.13, pancreatic cancer, screening #1
[10] = RERF-LC-KJ, NSCLC, screening #1
[11] = RT4, bladder cancer, screening #2
[12] = RT-112, bladder cancer, screening #2
[13] = SCaBER, bladder cancer, screening #1
[14] = SF295, neural tissue cancer, screening #2
[15] = SK-BR-3, breast cancer, screening #2
[16] = SNU119, ovary cancer, screening #1
[17] = SNU-308, liver cancer, screening #1
[18] = SW780, bladder cancer, screening #1
[19] = T47D, breast cancer, screening #2
[20] = T-24, bladder cancer, screening #2
[21] = TCCSUP, bladder cancer, screening #2
[22] = UM-UC-3, bladder cancer, screening #1

Substance: TRAIL: natural DR5 ligand, recombinant human TRAIL/APO-2L
- Max Inhibition (KURAMOCHI, ovary cancer, screening #1): 13.4%
- IC50 (LC1F, NSCLC, screening #1): 0.451 nM
- Max Inhibition (LC1F, NSCLC, screening #1): 74.3%
- IC50 (LC-1sq, NSCLC, screening #1): 0.781 nM
- Max Inhibition (LC-1sq, NSCLC, screening #1): 70.1%
- Max Inhibition (LCLC-97TM1, NSCLC, screening #1): 4.6%
- IC50 (LCLC-103H, NSCLC, screening #1): 8.02 nM
- Max Inhibition (LCLC-103H, NSCLC, screening #1): 54.2%
- Max Inhibition (LK-2, NSCLC, screening #1): 5.6%
- IC50 (LOU-NH91, NSCLC, screening #1): 5.38 nM
- Max Inhibition (LOU-NH91, NSCLC, screening #1): 63.0%
- Max Inhibition (LU-65, NSCLC, screening #1): 32.4%
- Max Inhibition (LU-99, NSCLC, screening #1): 6.3%
- IC50 (LUDLU-1, NSCLC, screening #1): 0.475 nM
- Max Inhibition (LUDLU-1, NSCLC, screening #1): 91.1%
- Max Inhibition (LXF-289, NSCLC, screening #1): 12.7%
- IC50 [1]: 56.8 nM
- Max Inhibition [1]: 48.4%
- IC50 [2]: 0.055 nM
- Max Inhibition [2]: 21.7%
- IC50 (MDA-MB-231, breast cancer (TNBC), screening #1): 0.11 nM
- IC50 (MDA-MB-436, breast cancer (TNBC), screening #2): 0.053 nM
- IC50 [3]: 34.6 nM
- Max Inhibition [3]: 20.7%
- IC50 [4]: 0.647 nM
- Max Inhibition [4]: 89.4%
- IC50 (MDST8, colorectal cancer, screening #1): 1.19 nM
- Max Inhibition (MEL-HO, melanoma, screening #1): 16.7%
- Max Inhibition (MEL-JUSO, melanoma, screening #1): 7.6%
- IC50 (MES-SA, endometrial cancer, screening #1): 0.107 nM
- IC50 (NCI-H460, NSCLC, screening #1): 0.853 nM
- Max Inhibition (NCI-H460, NSCLC, screening #1): 86.1%
- IC50 (NCI-H820, NSCLC, screening #1): 0.023 nM
- Max Inhibition (NCI-H820, NSCLC, screening #1): 100.0%
- IC50 (NMC-G1, neural tissue cancer, screening #2): 17.6 nM
- Max Inhibition (OV7, ovary cancer, screening #1): 20.4%
- IC50 [5]: 1.12 nM
- Max Inhibition [5]: 70.6%
- Max Inhibition (OVISE, ovary cancer, screening #1): 4.0%
- IC50 [6]: 0.23 nM
- Max Inhibition [6]: 80.0%
- Max Inhibition (OVTOKO, ovary cancer, screening #1): 28.0%
- IC50 [7]: 0.548 nM
- Max Inhibition [7]: 88.3%
- IC50 [8]: 0.205 nM
- Max Inhibition [8]: 86.9%
- IC50 [9]: 1.91 nM
- Max Inhibition [9]: 60.5%
- IC50 [10]: 0.633 nM
- Max Inhibition [10]: 68.9%
- IC50 (RL95-2, endometrial cancer, screening #1): 0.155 nM
- IC50 [11]: 0.244 nM
- Max Inhibition [11]: 91.5%
- IC50 [12]: 0.325 nM
- Max Inhibition [12]: 50.9%
- Max Inhibition (RVH-421, melanoma, screening #1): 22.5%
- IC50 [13]: 0.082 nM
- Max Inhibition [13]: 25.8%
- IC50 (SF126, neural tissue cancer, screening #2): 0.013 nM
- IC50 [14]: 0.023 nM
- Max Inhibition [14]: 87.5%
- IC50 [15]: 0.518 nM
- Max Inhibition [15]: 38.1%
- Max Inhibition (SK-MEL-30, melanoma, screening #1): 6.1%
- IC50 (SNB-75, neural tissue cancer, screening #2): 105 nM
- IC50 (SNG-II, endometrial cancer, screening #1): 1.03 nM
- IC50 (SNU5, gastric cancer, screening #1): 0.109 nM
- IC50 [16]: 0.082 nM
- Max Inhibition [16]: 83.7%
- IC50 (SNU1033, colorectal cancer, screening #1): 10.1 nM
- IC50 (SNU-175, colorectal cancer, screening #1): 0.122 nM
- IC50 [17]: 0.937 nM
- Max Inhibition [17]: 72.4%
- IC50 (SNU-407, colorectal cancer, screening #1): 0.098 nM
- IC50 (SNU-478, liver cancer, screening #1): 0.516 nM
- IC50 (SNU-601, gastric cancer, screening #1): 0.284 nM
- IC50 (SNU-620, gastric cancer, screening #1): 0.045 nM
- IC50 (SNU-668, gastric cancer, screening #1): 0.041 nM
- IC50 (SNU-719, gastric cancer, screening #1): 1.13 nM
- IC50 (SNU-869, liver cancer, screening #1): 2.95 nM
- Max Inhibition (SNU-878, liver cancer, screening #1): 36.2%
- IC50 (SNU-1197, colorectal cancer, screening #1): 0.053 nM
- IC50 (SNU-C2B, colorectal cancer, screening #1): 0.713 nM
- IC50 (SUM159PT, breast cancer (TNBC), screening #2): 0.033 nM
- IC50 (SW480, colorectal cancer, screening #1): 2.04 nM
- IC50 [18]: 0.016 nM
- Max Inhibition [18]: 97.9%
- IC50 (SW837, colorectal cancer, screening #1): 0.94 nM
- Max Inhibition (SW1573, NSCLC, screening #1): 13.9%
- IC50 (T3M-10, NSCLC, screening #1): 0.495 nM
- Max Inhibition (T3M-10, NSCLC, screening #1): 83.7%
- IC50 [19]: 347 nM
- Max Inhibition [19]: 8.4%
- IC50 [20]: 0.166 nM
- Max Inhibition [20]: 20.5%
- IC50 [21]: 0.048 nM
- Max Inhibition [21]: 51.5%
- IC50 (TE-4, head and neck cancer, screening #1): 0.107 nM
- IC50 (TE-6, head and neck cancer, screening #1): 3.92 nM
- IC50 (TE-9, head and neck cancer, screening #1): 0.3 nM
- IC50 (TEN, endometrial cancer, screening #1): 1.21 nM
- IC50 (U-87 MG, neural tissue cancer, screening #2): 0.053 nM
- IC50 [22]: 0.005 nM
- Max Inhibition [22]: 99.4%
- Max Inhibition (VMRC-LCD, NSCLC, screening #1): 19.2%
- Max Inhibition (WM-266-4, melanoma, screening #1): 42.5%
- IC50 (YD-15, head and neck cancer, screening #1): 0.114 nM
- IC50 (YH-13, neural tissue cancer, screening #2): 0.317 nM
- responder cell lines (maximum response threshold 70% inhibition) (monotherapy, 72 hour ATPlite assay): found for all tested tumor indications, except small cell lung cancer (SCLC)
